# Data taken from patent US6953812B2, “Glucagon antagonists/inverse agonists” (Novo Nordisk, Inc., priority 2000, dated 2005).
# Like-named read-outs stand apart in the source and are kept apart here.
# Assays:
# human glucagon receptor = target: T1, human glucagon receptor (Homo sapiens, UniProt P47871); assay: Glucagon Binding Assay (II); details: membranes of BHK cells transfected with human glucagon receptor, 125I-glucagon, SPA; read-out: Glu Bd Assay (II) IC50
# T1 construct: expressed in transfected cells; host or cells: BHK (baby hamster kidney) cells, membrane preparation
# T1 sequence (P47871 26-477): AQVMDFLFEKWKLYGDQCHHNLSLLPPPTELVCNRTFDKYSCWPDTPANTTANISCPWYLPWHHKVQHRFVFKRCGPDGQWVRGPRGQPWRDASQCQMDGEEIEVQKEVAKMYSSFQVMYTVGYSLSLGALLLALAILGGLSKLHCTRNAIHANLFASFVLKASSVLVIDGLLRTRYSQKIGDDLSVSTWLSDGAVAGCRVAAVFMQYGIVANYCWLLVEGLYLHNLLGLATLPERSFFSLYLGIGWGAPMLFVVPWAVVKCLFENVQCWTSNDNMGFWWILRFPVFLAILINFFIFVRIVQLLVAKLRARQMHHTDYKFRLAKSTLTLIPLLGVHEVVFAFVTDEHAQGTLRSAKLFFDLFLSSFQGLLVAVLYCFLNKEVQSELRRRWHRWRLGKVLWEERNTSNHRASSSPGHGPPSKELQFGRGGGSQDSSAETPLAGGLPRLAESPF
# Method: Glucagon Binding Assay (II)
# BHK (baby hamster kidney cell line) cells are transfected with the human glucagon receptor and a membrane preparation of the cells is prepared.
# All steps in the membrane preparation are kept on ice or performed at 4° C. BHK cells are harvested and centrifuged. The pellet is resuspended in homogenisation buffer (25 mM HEPES, pH=7.4, 2.5 mM CaCl2, 1.0 mM MgCl2, 250 mg/L bacitracin, 0.1 mM Pefabloc), homogenised 2×10 sec using Polytron 10-35 homogenizer (Kinematica) and added the same amount of homogenisation buffer as used for resuspension. After centrifugation (15 min at 2000×g) the supernatant is transferred to cold centrifuge tubes and centrifuged for 45 min at 40.000×g. The pellet is resuspended in homogenisation buffer, homogenised 2×10 sec (Polytron) and additional homogenisation buffer is added. The suspension is centrifuged for 45 min at 40.000×g and the pellet is resuspended in resuspension buffer (25 mM HEPES, pH=7.4, 2.5 mM CaCl2, 1.0 mM MgCl2) and homogenised 2×10 sec. (Polytron). […] Stabilisation buffer (25 mM HEPES, pH=7.4, 2.5 mM CaCl2, 1.0 mM MgCl2, 1% bovine serum albumin, 500 mg/L bacitracin, 2.5 M sucrose) is added and the membrane preparation is stored at −80° C.
# (§1) The glucagon binding assay is carried out in opti plates (Polystyrene Microplates, Packard). 50 μL assay buffer (25 mM HEPES, pH=7.5, 2.5 mM CaCl2, 1.0 mM MgCl2, 0.003% Tween-20, 0.005% bacitracin, 0.05% sodium azide) and 5 μL glucagon or test compound (in DMSO) are added to each well. […] Finally 50 μL WGA beads containing 1 mg beads are transferred to the well. The opti plates are incubated for 4 hours on a shaker and then settled for 8-48 hours. The opti plates are counted in a Topcounter. Non-specific binding is determined with 500 nM of glucagon.
# human GIP receptor = target: T2, human GIP receptor (Homo sapiens, UniProt P48546); assay: GIP Binding Assay
# T2 construct: expressed in transfected cells; host or cells: BHK (baby hamster kidney) cells, membrane preparation
# T2 sequence (P48546 22-466): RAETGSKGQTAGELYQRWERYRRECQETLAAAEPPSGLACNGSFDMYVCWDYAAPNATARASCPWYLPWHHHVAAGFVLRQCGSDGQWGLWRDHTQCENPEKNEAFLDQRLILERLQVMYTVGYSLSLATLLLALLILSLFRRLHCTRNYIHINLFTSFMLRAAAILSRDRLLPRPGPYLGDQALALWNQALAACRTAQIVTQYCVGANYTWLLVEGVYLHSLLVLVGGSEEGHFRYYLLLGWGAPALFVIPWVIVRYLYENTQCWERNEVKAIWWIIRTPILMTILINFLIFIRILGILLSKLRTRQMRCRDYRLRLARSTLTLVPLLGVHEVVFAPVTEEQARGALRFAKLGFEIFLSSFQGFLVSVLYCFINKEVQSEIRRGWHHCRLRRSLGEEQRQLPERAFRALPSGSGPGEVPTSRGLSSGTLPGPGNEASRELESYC
# Method: BHK (baby hamster kidney cell line) cells are transfected with the human GIP receptor and a membrane preparation of the cells is prepared.
# All steps in the membrane preparation are kept on ice or performed at 4° C. BHK cells are harvested and centrifuged. The pellet is resuspended in homogenisation buffer (25 mM) HEPES, pH=7.4, 2.5 mM CaCl2, 1.0 mM MgCl2, 250 mg/L bacitracin, 0.1 mM Pefabloc), homogenised 2×10 sec using Polytron 10-35 homogenizer (Kinematica) and added the same amount of homogenisation buffer as used for resuspension. After centrifugation (15 min at 2000×g) the supernatant is transferred to cold centrifuge tubes and centrifuged for 45 min at 40.000×g. The pellet is resuspended in homogenisation buffer, homogenised 2×10 sec (Polytron) and additional homogenisation buffer is added. The suspension is centrifuged for 45 min at 40.000×g and the pellet is resuspended in resuspension buffer (25 mM HEPES, pH=7.4, 2.5 mM CaCl2, 1.0 mM MgCl2) and homogenised 2×10 sec. (Polytron). […] Stabilisation buffer (25 mM HEPES, pH=7.4, 2.5 mM CaCl2, 1.0 mM MgCl2, 1% bovine serum albumin, 500 mg/L bacitracin, 2.5 M sucrose) is added and the membrane preparation is stored at −80° C.
# as §1, with “The GIP” for “The glucagon”, “μL GIP” for “μL glucagon”, “for 3.5” for “for 4”, “a Top-counter.” for “a Topcounter.”, “of GIP.” for “of glucagon.”
# [1] = membranes of BHK cells transfected with human GIP receptor, 125I-GIP, SPA, read-out: GIP Bd Assay IC50
SMILES,IC50 (human glucagon receptor) [nM],IC50 (human GIP receptor; [1]) [nM],IC50 (human GIP receptor) [nM]
"CC(NC(=O)N(Cc1ccc(C(=O)NC[C@@H](O)C(=O)O)cc1)c1ccc(C2CCCCC2)cc1)c1ccc(Br)cc1 (mixture of isomers) [Example 54, 3-{4-[3-[1(RS)-(4-Bromophenyl)ethyl]-1-(4-cyclohexylphenyl)ureidomethyl]benzoylamino}-2(R)-hydroxypropionic acid]",390,> 3000,–
"CC(C)(C)c1ccc(N(Cc2ccc(C(=O)NCC(O)C(=O)O)cc2)C(=O)Nc2ccc(OC(F)(F)F)cc2)cc1 (racemic) [Example 16, (RS)-3-{4-[1-(4-tert-Butylphenyl)-3-(4-trifluoromethoxyphenyl)ureidomethyl]benzoylamino}-2-hydroxypropionic acid]",61,205,–
"O=C(NCC(O)C(=O)O)c1ccc(CN(C(=O)Nc2cc(Cl)cc(Cl)c2)c2ccc(C3=CCCCC3)cc2)cc1 (racemic) [Example 17, (RS)-3-{4-[1-(4-Cyclohex-1-enylphenyl)-3-(3,5-dichlorophenyl)ureidomethyl]benzoylamino}-2-hydroxypropionic acid]",22,–,448
"O=C(NCC(F)C(=O)O)c1ccc(CN(C(=O)Nc2cc(Cl)cc(Cl)c2)c2ccc(C3=CCCCC3)cc2)cc1 (racemic) [Example 23, (RS)-3-{4-[1-(4-Cyclohex-1-enylphenyl)3-(3,5-dichlorophenyl)ureidomethyl]benzoylamino}-2-fluoropropionic acid]",40,516,–
"COc1cc(NC(=O)N(Cc2ccc(C(=O)NC[C@@H](O)C(=O)O)cc2)c2ccc(C3CCCCC3)cc2)cc(C(F)(F)F)c1 [Example 1, (R)-3-{4-[1-(4-Cyclohexylphenyl)-3-(3methoxy-5-trifluoromethylphenyl)ureidomethyl]benzoylamino}-2-hydroxypropionic acid]",29,701,–
"O=C(NC[C@@H](O)C(=O)O)c1ccc(CN(C(=O)Nc2cc(C(F)(F)F)cc(C(F)(F)F)c2)c2ccc(C3CCCCC3)cc2)cc1 [Example 2, (R)-3-{4-[3-(3,5-Bis(trifluoromethyl)phenyl)-1-(4-cyclohexylphenyl)ureidomethyl]benzoylamino}-2-hydroxypropionic acid]",12,269,–
"O=C(NC[C@@H](O)C(=O)O)c1ccc(CN(C(=O)Nc2cccc(Br)c2)c2ccc(C3CCCCC3)cc2)cc1 [Example 3, (R)-3-{4-[3-(3-Bromophenyl)-1-(4-cyclohexylphenyl)ureidomethyl]benzoylamino}-2-hydroxypropionic acid]",18,653,–
"O=C(NC[C@@H](O)C(=O)O)c1ccc(CN(C(=O)Nc2ccc(OC(F)(F)F)cc2)c2ccc(C3CCCCC3)cc2)cc1 [Example 4, (R)-3-{4-[1-(4-Cyclohexylphenyl)-3-(4-trifluoromethoxyphenyl)ureidomethyl]benzoylamino}-2-hydroxypropionic acid]",23,124,–
"O=C(NC[C@@H](O)C(=O)O)c1ccc(CN(C(=O)Nc2cccc(C(F)(F)F)c2)c2ccc(C3CCCCC3)cc2)cc1 [Example 5, (R)-3-{4-[1-(4-Cyclohexylphenyl)-3-(3-trifluoromethylphenyl)ureidomethyl]benzoylamino}-2-hydroxypropionic acid]",26,519,–
"O=C(NC[C@@H](O)C(=O)O)c1ccc(CN(C(=O)Nc2cc(F)cc(C(F)(F)F)c2)c2ccc(C3CCCCC3)cc2)cc1 [Example 6, (R)-3-{4-[1-(4-Cyclohexylphenyl)-3-(3-fluoro-5-trifluoromethylphenyl)ureidomethyl]benzoylamino}-2-hydroxypropionic acid]",10,294,–
"N#Cc1cc(NC(=O)N(Cc2ccc(C(=O)NC[C@@H](O)C(=O)O)cc2)c2ccc(C3=CCCCC3)cc2)cc(C(F)(F)F)c1 [Example 7, (R)-3-{4-[3-(3-Cyano-5-trifluoromethylphenyl)-1-(4-cyclohex-1-enylphenyl)ureidomethyl]benzoylamino}-2-hydroxypropionic acid]",26,292,–
